Assay results taken from US9226950B2, “Method and composition for treating diabetes mellitus” (National Dong Hwa University, priority 2013, dated 2016).

Biological target: T1, Insr (Rattus norvegicus, UniProt P15127)
T1 construct: L6 cells were fully differentiated with α-MEM supplemented with 2% FBS for 5 days to myotubes; endogenous in cells; host or cells: L6 myoblasts differentiated to myotubes
Experiment: Phosphorylation of insulin receptors (Tyr1158/Tyr1162/Tyr1163) in L6 cells, Western blot
Type: cell-based
Settings: FIG. 1(a)
Description: […] muscle myoblast cells (L6) was a generous gift from Professor Hitoshi Ashida's Lab. (Kobe University, Kobe, Japan). The cells were grown and maintained in α-minimal essential medium (α-MEM, 12000022, GIBCO, CA, USA) containing 10% fetal bovine serum (FBS, GIBCO) and 1% penicillin streptomycin (GIBCO) in a cell culture incubator with 5% CO2 at 37° C. Prior to the following experiments, the cells were seeded and cultured at a density of 8×10^3 cells per well in 96-well plates or 2.5×10^5 cells per well in 6-well plates. After the myoblasts achieved 80% confluence, the cells were incubated for 5 days in the α-MEM supplemented with 2% FBS to induce differentiation to myotubes.
L6 cells were fully differentiated with α-MEM supplemented with 2% FBS for 5 days to myotubes. The cells were washed twice with Phosphate Buffered Saline (PBS) containing 0.1% BSA and subsequently incubated α-MEM containing 0.25% BSA with or without 100 nM of S961, and treated with or without 100 μM of Tetracosanol for 90 min. Then, the cells were treated with or without 10 μM of insulin for 5 min. […] The levels of the proteins including phospho-Insulin receptors (Tyr1158/Tyr1162/Tyr1163) and Insulin receptor (Cell Signaling, Boston, Mass., USA) were detected and evaluated by Western blot with primary antibody.
The cells after treatments were collected and washed twice in cold KRH buffer, and then lysed in ice-cold RIPA buffer incubation at 4° C. for 60 min. After centrifugation at 12,000×g for 30 min at 4° C., the supernatant was kept and quantified by Bradford protein assay (Bio-Rad, Hercules, Calif., USA). […] The signals were monitored using Western Lightning™ Plus-ECL (Perkin Elmer Life Sciences) and the PVDF membrane was exposed to Luminescent image analyzer (LAS)-3000 (Fujifilm, Minato, Tokyo, Japan). Acquired data were analyzed and compared the difference among treatments. […]

T1 sequence (P15127 27-759 limits assumed): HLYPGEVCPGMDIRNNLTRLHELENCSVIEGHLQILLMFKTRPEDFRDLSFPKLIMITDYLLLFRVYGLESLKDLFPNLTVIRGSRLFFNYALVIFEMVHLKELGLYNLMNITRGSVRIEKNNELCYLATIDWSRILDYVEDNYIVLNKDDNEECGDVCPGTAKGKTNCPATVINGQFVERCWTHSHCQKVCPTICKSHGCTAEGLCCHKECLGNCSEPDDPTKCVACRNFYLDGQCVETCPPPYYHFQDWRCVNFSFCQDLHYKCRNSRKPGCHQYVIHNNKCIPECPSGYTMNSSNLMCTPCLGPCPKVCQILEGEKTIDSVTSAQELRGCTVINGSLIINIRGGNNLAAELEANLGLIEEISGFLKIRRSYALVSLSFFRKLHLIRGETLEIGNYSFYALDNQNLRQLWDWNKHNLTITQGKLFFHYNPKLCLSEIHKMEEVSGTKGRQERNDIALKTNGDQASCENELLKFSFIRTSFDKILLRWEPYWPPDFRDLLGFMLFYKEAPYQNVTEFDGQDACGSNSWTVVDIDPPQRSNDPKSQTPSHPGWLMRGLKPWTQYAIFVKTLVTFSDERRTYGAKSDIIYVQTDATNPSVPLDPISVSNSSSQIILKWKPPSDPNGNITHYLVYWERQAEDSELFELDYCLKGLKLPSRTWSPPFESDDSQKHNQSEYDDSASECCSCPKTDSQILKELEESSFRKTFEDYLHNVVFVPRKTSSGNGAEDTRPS
T1 sequence (P15127 764-1383 limits assumed): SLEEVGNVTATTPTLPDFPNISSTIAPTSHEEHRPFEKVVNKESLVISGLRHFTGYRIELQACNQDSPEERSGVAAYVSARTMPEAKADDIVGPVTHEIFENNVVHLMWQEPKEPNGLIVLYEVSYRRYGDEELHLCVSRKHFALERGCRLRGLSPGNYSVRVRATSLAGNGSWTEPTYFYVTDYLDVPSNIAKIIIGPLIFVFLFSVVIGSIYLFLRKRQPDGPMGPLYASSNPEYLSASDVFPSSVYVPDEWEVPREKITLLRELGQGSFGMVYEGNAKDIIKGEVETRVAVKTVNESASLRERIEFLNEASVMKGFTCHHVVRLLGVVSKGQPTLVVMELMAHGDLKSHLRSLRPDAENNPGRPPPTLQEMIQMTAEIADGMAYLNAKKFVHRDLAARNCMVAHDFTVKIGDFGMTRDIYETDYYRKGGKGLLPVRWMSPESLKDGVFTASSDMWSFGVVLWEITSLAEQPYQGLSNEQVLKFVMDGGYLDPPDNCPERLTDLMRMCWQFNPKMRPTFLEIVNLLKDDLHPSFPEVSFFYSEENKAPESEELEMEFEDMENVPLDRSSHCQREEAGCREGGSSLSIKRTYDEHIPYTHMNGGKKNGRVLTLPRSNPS

CCCCCCCCCCCCCCCCCCCCCCCCO [tetracosanol]
phosphorylation of phospho-Insr on Tyr1158, 1162, and 1163 (insulin plus tetracosanol (Ins+Tet): 100 μM tetracosanol 90 min, then 10 μM insulin 5 min): tended to be enhanced
phosphorylation of phospho-Insr on Tyr1158, 1162, and 1163 (insulin with S961 plus tetracosanol (Ins+S961+Tet): 100 nM S961, 100 μM tetracosanol, 10 μM insulin): tended to be enhanced
